Assay results taken from PubChem BioAssay AID602236 (The Scripps Research Institute Molecular Screening Center, 2012).
Activity calls are given as the source filed them.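 The calls were made as follows: active = IC50 of 10 µM or lower; inactive = IC50 above 10 µM.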

These compounds were tested on HEK-293 Gal4-VP16 UAS luciferase reporter, luminescence (assay: GAL4-VP16 reporter repression curves – cell-based, luminescence, high throughput, SRC1 series, counter-screen for SRC1 inhibitor project, dose response (AID 602236);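 also: inhibitor potency where hits lower luciferase light from Gal4-VP16 transactivation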).

**Q.** O=C(Nc1nc(-c2ccccn2)cs1)c1cccc(-n2cnnn2)c1 was tested. Which IC50 did it give?
**A.** Its IC50 is 17 µM (inactive).

**Q.** How did the IC50 turn out when CN1CCN(c2cccc3c2C(=O)c2ccccc2C3=O)CC1 was run?
**A.** The IC50 was 23.8 µM (inactive).

**Q.** How did the IC50 turn out when CN(C)c1ccc(/C=C/c2nc3ccccc3s2)cc1 was run?
**A.** Its IC50 is 19.8 µM (inactive).

**Q.** Which IC50 does the source give for C=CCNc1ncnc2ccc(Br)cc12 here?
**A.** The IC50 was 5.96 µM.

**Q.** Which IC50 does the source give for COc1cccc(CNc2ncnc3ccc(-c4c(C)noc4C)cc23)c1 here?
**A.** Its IC50 is > 35.9 µM (inactive).

**Q.** CC(=O)NC(c1cc(Cl)c2cccnc2c1O)C1CC1 (stereo not drawn) was tested. Which IC50 did it give?
**A.** Its IC50 is 9.3 µM.

**Q.** N#Cc1c(-c2ccccc2)c(C#N)c2nc3ccccc3n2c1N was tested. Which IC50 did it give?
**A.** The IC50 was > 35.9 µM (inactive).

**Q.** How did the IC50 turn out when S=C(c1ccc(-c2ccccc2)cc1)N1CCOCC1 was run?
**A.** Its IC50 is 24 µM (inactive).

**Q.** How did the IC50 turn out when CC(NC(=O)COC(=O)c1cccs1)c1ccccc1 (stereo not drawn) was run?
**A.** The IC50 was > 35.9 µM (inactive).

**Q.** With S=C(Nc1ccccc1)Nc1ccc(OCc2ccc(Cl)cc2Cl)cc1 as the compound, how does the IC50 read?
**A.** The IC50 was 6.69 µM.

**Q.** For CCOc1cccc(/C=N/NC(=O)c2cccnc2)c1O, which IC50 is on record?
**A.** Its IC50 is 8.44 µM.

**Q.** For COc1cccc(/C=N/NC(=O)CNC(=O)C2COc3ccccc3O2)c1O (stereo not drawn), which IC50 is on record?
**A.** The IC50 was 11.1 µM (inactive).

**Q.** C=CCn1c(Oc2ccccc2F)nc2c1c(=O)n(C)c(=O)n2C was tested. Which IC50 did it give?
**A.** Its IC50 is 8.46 µM.

**Q.** CN(C)C(=O)c1ccc(-c2n[nH]c(=O)c3ccccc23)cc1 was tested. Which IC50 did it give?
**A.** The IC50 was 16.2 µM (inactive).

**Q.** Which IC50 does the source give for CCOc1cc(C(N)=O)cc(Br)c1OC here?
**A.** Its IC50 is 17.1 µM (inactive).

**Q.** COc1ccc(Nc2ncnc3ccc(Br)cc23)c(OC)c1 was tested. Which IC50 did it give?
**A.** The IC50 was 15.9 µM (inactive).

**Q.** Cc1nn(CC(=O)N2CCN(c3cccc(C(F)(F)F)c3)CC2)c(=O)c2cccn12 was tested. Which IC50 did it give?
**A.** The IC50 was 17.6 µM (inactive).

**Q.** For Cc1cc(/C=C2\Cc3ccccc3C2=O)c(C)n1-c1ccccc1, which IC50 is on record?
**A.** Its IC50 is > 35.9 µM (inactive).

**Q.** With CCCCC(CC)COCCCN=Cc1c(O)[nH]c(=S)[nH]c1=O (stereo not drawn) as the compound, how does the IC50 read?
**A.** Its IC50 is 10.5 µM (inactive).

**Q.** For Cc1ccc(NC(=O)CCC(=O)N/N=C/c2ccc(O)cc2O)cc1, which IC50 is on record?
**A.** The IC50 was 23 µM (inactive).

**Q.** How did the IC50 turn out when CN(Cc1cnc2nc(N)nc(N)c2n1)c1ccc(C(=O)NC(CCC(=O)O)C(=O)O)c2ccccc12 (stereo not drawn) was run?
**A.** Its IC50 is > 35.9 µM (inactive).

**Q.** With Cc1ccc(O)c(Nc2ncnc3ccc([N+](=O)[O-])cc23)c1 as the compound, how does the IC50 read?
**A.** Its IC50 is 10.8 µM (inactive).

**Q.** CCC(=O)Oc1c(C(=O)CC)cc2c(C)cc(=O)oc2c1C was tested. Which IC50 did it give?
**A.** The IC50 was 18.9 µM (inactive).

**Q.** How did the IC50 turn out when CCOC(=O)CC(=O)CSc1nccc(-c2cccnc2)n1 was run?
**A.** Its IC50 is > 35.9 µM (inactive).

**Q.** Which IC50 does the source give for Cc1c(CC(=O)NCCCC(=O)O)c(=O)oc2cc3c(cc12)CCC(C)(C)O3 here?
**A.** Its IC50 is 18.4 µM (inactive).

**Q.** For COc1cc(C2c3cc4c(cc3C(OC3OC5COC(c6cccs6)OC5C(O)C3O)C3COC(=O)C23)OCO4)cc(OC)c1O (stereo not drawn), which IC50 is on record?
**A.** Its IC50 is > 35.9 µM (inactive).

**Q.** With CCN(Cc1ccncc1)C(=O)CC1C(=O)NCCN1Cc1ccc(F)c(F)c1 (stereo not drawn) as the compound, how does the IC50 read?
**A.** The IC50 was 15.8 µM (inactive).

**Q.** Which IC50 does the source give for Cc1ccc(S(=O)(=O)N2[C@@H](c3ccc(C(C)(C)C)cc3)C(C(=O)O)=CC[C@H]2c2ccc(Cl)cc2)cc1 here?
**A.** The IC50 was 16 µM (inactive).

**Q.** CCN(C(=O)c1cc(S(=O)(=O)N2CCCCC2)c[nH]1)c1ccc(OC)cc1 was tested. Which IC50 did it give?
**A.** Its IC50 is 12.8 µM (inactive).

**Q.** How did the IC50 turn out when O=C(CCC1CCCC1)Nc1ccc(C(=O)NCc2cccnc2)cc1 was run?
**A.** Its IC50 is 7.75 µM.

**Q.** Which IC50 does the source give for CC(C)(C)c1cc(C(=O)N/N=C/c2ccc(O)cc2)n(-c2ccccc2)n1 here?
**A.** The IC50 was 21.9 µM (inactive).

**Q.** Which IC50 does the source give for CCn1c(Oc2ccc(F)cc2)nc2c1c(=O)n(C)c(=O)n2C here?
**A.** Its IC50 is 12.4 µM (inactive).

**Q.** CCCCCCCC[n+]1c(C)n(-c2ccccc2)c2ccc(NC(C)=O)cc21 was tested. Which IC50 did it give?
**A.** Its IC50 is 10.5 µM (inactive).

**Q.** Which IC50 does the source give for O=C(CCC(=O)Nc1ccc(Br)cc1)N/N=C/c1ccccc1O here?
**A.** The IC50 was 4.9 µM.

**Q.** How did the IC50 turn out when Nc1nc(CCl)nc(Nc2cccc3ccccc23)n1 was run?
**A.** Its IC50 is 11.1 µM (inactive).

**Q.** For Nc1ccc(Oc2ccccc2-c2ccccc2)cc1, which IC50 is on record?
**A.** Its IC50 is 19 µM (inactive).

**Q.** With Cc1nc2ccccn2c1-c1ccnc(=S)[nH]1 as the compound, how does the IC50 read?
**A.** The IC50 was > 35.8 µM (inactive).

**Q.** With O=C(NC(NC(=S)N1CCOCC1)C(Cl)(Cl)Cl)c1ccc(Cl)cc1 (stereo not drawn) as the compound, how does the IC50 read?
**A.** Its IC50 is 15.5 µM (inactive).

**Q.** How did the IC50 turn out when Cc1ccc2occ(/C=N/NC(=O)[C@@H](N)Cc3ccccc3)c(=O)c2c1 was run?
**A.** The IC50 was 12.7 µM (inactive).

**Q.** How did the IC50 turn out when CCc1ccc(-c2nc(CSCC(=O)NCc3ccco3)c(C)o2)cc1 was run?
**A.** The IC50 was 21.8 µM (inactive).

**Q.** Which IC50 does the source give for COc1cc(OC)c2cc(C(=O)N/N=C/c3cccc(OC)c3O)[nH]c2c1 here?
**A.** The IC50 was 9.42 µM.

**Q.** For CCOc1ccccc1-n1c(SCC(=O)Nc2ccccc2C(=O)O)nc2ccccc2c1=O, which IC50 is on record?
**A.** The IC50 was > 35.9 µM (inactive).

**Q.** How did the IC50 turn out when CCc1c(C)nc2c(C)cccc2c1SCCC#N was run?
**A.** The IC50 was > 35.9 µM (inactive).

**Q.** Which IC50 does the source give for O=C(CCCOc1ccc(Cl)cc1Cl)N/N=C/c1ccccc1O here?
**A.** Its IC50 is 4.77 µM.

**Q.** With Cn1nc(C(F)(F)F)c(C#N)c1N1CCN(c2ccc(F)cc2)CC1 as the compound, how does the IC50 read?
**A.** Its IC50 is 7.86 µM.

**Q.** How did the IC50 turn out when Cc1cc(=O)[nH]c(Nc2cccc(Br)c2)n1 was run?
**A.** The IC50 was 9.71 µM.

**Q.** How did the IC50 turn out when Cc1c(C(=O)N/N=C/C(C)C)[nH]c2ccc([N+](=O)[O-])cc12 was run?
**A.** Its IC50 is 21.3 µM (inactive).

**Q.** For COc1cccc(C2=CC(=O)CC(C)(C)C2)c1, which IC50 is on record?
**A.** Its IC50 is 24 µM (inactive).

**Q.** O=C(N/N=C(\c1ccccc1)c1ccccn1)c1ccccc1Cl was tested. Which IC50 did it give?
**A.** Its IC50 is 10.8 µM (inactive).

**Q.** For CCn1c2ccccc2c2cnc(N=CN(C)C)c(C#N)c21, which IC50 is on record?
**A.** The IC50 was 28.9 µM (inactive).

**Q.** O=C(Nc1cccc(Cl)c1)Nc1nnc(-c2ccncc2)s1 was tested. Which IC50 did it give?
**A.** The IC50 was 5.14 µM.

**Q.** Which IC50 does the source give for COc1cc(C(=O)N/N=C(\c2ccccc2)c2ccccn2)cc(OC)c1OC here?
**A.** Its IC50 is 8.61 µM.

**Q.** How did the IC50 turn out when CN(CC(=O)Nc1ccc(Cl)c(C(F)(F)F)c1)C(=O)C1CC(=O)N(c2ccc3c(c2)OCCO3)C1 (stereo not drawn) was run?
**A.** The IC50 was 25.1 µM (inactive).

**Q.** Cc1ccc(/C=C2\SC(=S)N(CCCC(=O)NC3CCCC3)C2=O)cc1 was tested. Which IC50 did it give?
**A.** Its IC50 is 5.37 µM.

**Q.** With Cc1ccc(NC(=O)C2CCN(c3ncnc4sc(C)c(C)c34)CC2)cc1S(=O)(=O)N(C)C as the compound, how does the IC50 read?
**A.** Its IC50 is 13.4 µM (inactive).

**Q.** Fc1cccc(CSc2nnc3ccc(-c4ccncc4)nn23)c1 was tested. Which IC50 did it give?
**A.** The IC50 was > 35.8 µM (inactive).

**Q.** COc1ccc(Oc2nc3c(c(=O)n(C)c(=O)n3C)n2C)cc1 was tested. Which IC50 did it give?
**A.** The IC50 was 16.6 µM (inactive).

**Q.** Which IC50 does the source give for Cc1ccc(O)c(C(=O)c2cnn(C(=O)COc3ccc(Cl)cc3)c2)c1 here?
**A.** Its IC50 is 27.6 µM (inactive).
